pIC50: −log10 of the molar value.

The test has as its target T1, APOL1 G1 Protein (Homo sapiens, UniProt O14791, I384M/S342G).
T1 sequence (O14791 28-398 S342G/I384M): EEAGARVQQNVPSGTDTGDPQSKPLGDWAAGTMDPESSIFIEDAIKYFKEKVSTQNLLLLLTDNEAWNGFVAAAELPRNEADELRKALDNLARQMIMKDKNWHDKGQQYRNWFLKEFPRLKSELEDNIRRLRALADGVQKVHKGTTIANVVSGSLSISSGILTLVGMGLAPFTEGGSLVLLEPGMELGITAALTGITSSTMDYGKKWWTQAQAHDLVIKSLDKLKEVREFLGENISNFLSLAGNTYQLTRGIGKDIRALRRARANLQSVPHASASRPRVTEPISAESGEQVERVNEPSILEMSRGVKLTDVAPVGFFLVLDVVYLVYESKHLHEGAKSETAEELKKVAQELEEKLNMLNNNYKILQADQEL
The experiment in a line: Trypanosoma brucei brucei lysis assay using APOL1 recombinant protein (AlamarBlue viability). The test is classed as cell-based. The conditions noted are these: Trypanosoma brucei brucei lysis, recombinant APOL1, AlamarBlue; read-out: Trypanosoma Assay (IC50). The method, boiled down: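 Bloodstream-form T. b. brucei Lister 427 VSG 221, 120,000 parasites/well in phenol red-free, FBS-free medium, lysed by recombinant APOL1 G1 with compound (10-point dose response, 0.1% DMSO final). Viability read by AlamarBlue fluorescence against a parasite standard curve.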
Broadly, the pIC50 is the IC50 on a negative log10 scale, so that one unit is a factor of ten. On to `CC1C[C@H](NC(=O)[C@H]2C[C@H](c3c(-c4ccc(F)cc4)[nH]c4c(F)cc(F)cc43)C2)C(=O)N1` (mixture of isomers) [Compound 84], for which the pIC50 is 6.00 to 6.60.

With `O=C1CC(NC(=O)[C@H]2C[C@H](c3c(-c4ccc(F)cc4)[nH]c4c(F)cc(F)cc43)C2)CN1` (mixture of isomers) [Compound 44], the negative logarithm of the IC50 (pIC50) was under 6.00.

As for `CC(NC(=O)[C@H]1C[C@H](c2c(-c3ccc(F)cc3)[nH]c3c(F)cc(F)cc32)C1)C(N)=O` (mixture of isomers) [Compound 68], the pIC50 is 6.00 to 6.60.

On to `CC(NC(=O)[C@H]1C[C@H](c2c(-c3ccc(F)cc3)[nH]c3c(F)cc(F)cc32)C1)c1ccn(C)n1` (mixture of isomers) [Compound 75], for which the negative logarithm of the IC50 (pIC50) was over 6.60.

Consider `CC(NC(=O)[C@H]1C[C@H](c2c(-c3ccc(F)cc3)[nH]c3c(F)cc(F)cc32)C1)c1ccnn1C` (mixture of isomers) [Compound 76], for which the negative logarithm of the IC50 (pIC50) was under 6.00.

As for `CC(NC(=O)[C@H]1C[C@H](c2c(-c3ccc(F)cc3)[nH]c3c(F)cc(F)cc32)C1)c1ccn[nH]1` (mixture of isomers) [Compound 81], the negative-log IC50 (pIC50) is 6.00 to 6.60.

Consider `NC(=O)CNC(=O)[C@H]1C[C@H](c2c(-c3ccc(F)cc3)[nH]c3c(F)cc(F)cc32)C1` [Compound 1, N-(2-amino-2-oxo-ethyl)-3-[5,7-difluoro-2-(4-fluorophenyl)-1H-indol-3-yl]cyclobutanecarboxamide], for which the pIC50 is over 6.60.

Take `O=C1NCCC1NC(=O)[C@H]1C[C@H](c2c(-c3ccc(F)cc3)[nH]c3c(F)cc(F)cc32)C1` (stereo partly shown) [Compound 2]: the pIC50 was over 6.60.

Take `NCC(O)CNC(=O)[C@H]1C[C@H](c2c(-c3ccc(F)cc3)[nH]c3c(F)cc(F)cc32)C1` (stereo partly shown) [Compound 3]: the pIC50 is 6.00 to 6.60.

`NCCCNC(=O)[C@H]1C[C@H](c2c(-c3ccc(F)cc3)[nH]c3c(F)cc(F)cc32)C1` [Compound 4]: the pIC50 is over 6.60.

In the case of `O=C(NCC1CC(F)(F)C1)[C@H]1C[C@H](c2c(-c3ccc(F)cc3)[nH]c3c(F)cc(F)cc32)C1` [Compound 41], the pIC50 is under 6.00.

`O=C(NCC1CCOCC1)[C@H]1C[C@H](c2c(-c3ccc(F)cc3)[nH]c3c(F)cc(F)cc32)C1` [Compound 42]: the pIC50 is under 6.00.

`O=C1NCC[C@H]1NC(=O)[C@H]1C[C@H](c2c(-c3ccc(F)cc3)[nH]c3c(F)cc(F)cc32)C1` [Compound 45]: the pIC50 was over 6.60.

In the case of `O=C(NCCO)[C@H]1C[C@H](c2c(-c3ccc(F)cc3)[nH]c3c(F)cc(F)cc32)C1` [Compound 46, 3-[5,7-difluoro-2-(4-fluorophenyl)-1H-indol-3-yl]-N-(2-hydroxyethyl)cyclobutanecarboxamide], the negative logarithm of the IC50 (pIC50) is over 6.60.

`O=C(NC1(CO)CC1)[C@H]1C[C@H](c2c(-c3ccc(F)cc3)[nH]c3c(F)cc(F)cc32)C1` [Compound 47]: the negative-log IC50 (pIC50) was over 6.60.

For `Cn1cnc(CNC(=O)[C@H]2C[C@H](c3c(-c4ccc(F)cc4)[nH]c4c(F)cc(F)cc43)C2)c1` [Compound 48], the negative-log IC50 (pIC50) was over 6.60.

For the compound `CN(CC1(CO)CC1)C(=O)[C@H]1C[C@H](c2c(-c3ccc(F)cc3)[nH]c3c(F)cc(F)cc32)C1` [Compound 49], the pIC50 is under 6.00.

Consider `O=C(CNC(=O)[C@H]1C[C@H](c2c(-c3ccc(F)cc3)[nH]c3c(F)cc(F)cc32)C1)NC1CC1` [Compound 50], for which the pIC50 is under 6.00.

`CN(CC(N)=O)C(=O)[C@H]1C[C@H](c2c(-c3ccc(F)cc3)[nH]c3c(F)cc(F)cc32)C1` [Compound 51]: the pIC50 was 6.00 to 6.60.

For `O=C([C@H]1C[C@H](c2c(-c3ccc(F)cc3)[nH]c3c(F)cc(F)cc32)C1)N(CCO)C1CC1` [Compound 52], the pIC50 is 6.00 to 6.60.

`COCC1(CNC(=O)[C@H]2C[C@H](c3c(-c4ccc(F)cc4)[nH]c4c(F)cc(F)cc43)C2)CC1` [Compound 53]: the pIC50 is under 6.00.

In the case of `COCC1(NC(=O)[C@H]2C[C@H](c3c(-c4ccc(F)cc4)[nH]c4c(F)cc(F)cc43)C2)CC1` [Compound 54], the pIC50 is over 6.60.

As for `CCOCC1(CNC(=O)[C@H]2C[C@H](c3c(-c4ccc(F)cc4)[nH]c4c(F)cc(F)cc43)C2)CC1` [Compound 55], the pIC50 is under 6.00.

In the case of `NC(=O)C1(NC(=O)[C@H]2C[C@H](c3c(-c4ccc(F)cc4)[nH]c4c(F)cc(F)cc43)C2)CC1` [Compound 56], the negative logarithm of the IC50 (pIC50) was 6.00 to 6.60.

With `O=C([C@H]1C[C@H](c2c(-c3ccc(F)cc3)[nH]c3c(F)cc(F)cc32)C1)N1C[C@@H](CO)OCC12CC2` [Compound 57], the pIC50 was under 6.00.

`CN(C(=O)[C@H]1C[C@H](c2c(-c3ccc(F)cc3)[nH]c3c(F)cc(F)cc32)C1)C1(CO)CC1` [Compound 58]: the pIC50 is 6.00 to 6.60.

As to `O=C(NC1(CCO)CC1)[C@H]1C[C@H](c2c(-c3ccc(F)cc3)[nH]c3c(F)cc(F)cc32)C1` [Compound 59], the negative-log IC50 (pIC50) is 6.00 to 6.60.

With `CC(N)(C(=O)NC(=O)[C@H]1C[C@H](c2c(-c3ccc(F)cc3)[nH]c3c(F)cc(F)cc32)C1)C(F)(F)F` (stereo partly shown) [Compound 60], the pIC50 is 6.00 to 6.60.

Consider `C[C@@H](NC(=O)[C@H]1C[C@H](c2c(-c3ccc(F)cc3)[nH]c3c(F)cc(F)cc32)C1)C(=O)N(C)C` [Compound 61], for which the pIC50 is under 6.00.

As to `CN(C)C(=O)CN(C)C(=O)[C@H]1C[C@H](c2c(-c3ccc(F)cc3)[nH]c3c(F)cc(F)cc32)C1` [Compound 62], the pIC50 was under 6.00.

`CC(C)N1CCN(C(=O)[C@H]2C[C@H](c3c(-c4ccc(F)cc4)[nH]c4c(F)cc(F)cc43)C2)CC1=O` [Compound 63]: the pIC50 is under 6.00.

With `CCNC(=O)[C@@H]1CCCN1C(=O)[C@H]1C[C@H](c2c(-c3ccc(F)cc3)[nH]c3c(F)cc(F)cc32)C1` [Compound 64], the pIC50 is under 6.00.

Turning to `C[C@H](NC(=O)[C@H]1C[C@H](c2c(-c3ccc(F)cc3)[nH]c3c(F)cc(F)cc32)C1)C(=O)N(C)C` [Compound 65], the pIC50 was 6.00 to 6.60.

In the case of `CC(C)(NC(=O)[C@H]1C[C@H](c2c(-c3ccc(F)cc3)[nH]c3c(F)cc(F)cc32)C1)C(=O)N1CCOCC1` [Compound 66], the pIC50 was under 6.00.

As to `CN1CCN(C(=O)CNC(=O)[C@H]2C[C@H](c3c(-c4ccc(F)cc4)[nH]c4c(F)cc(F)cc43)C2)CC1` [Compound 67], the pIC50 was under 6.00.

For the compound `O=C(NCC1(O)CCCC1)[C@H]1C[C@H](c2c(-c3ccc(F)cc3)[nH]c3c(F)cc(F)cc32)C1` [Compound 69], the pIC50 is under 6.00.

Take `CN1CC(CNC(=O)[C@H]2C[C@H](c3c(-c4ccc(F)cc4)[nH]c4c(F)cc(F)cc43)C2)CC1=O` (stereo partly shown) [Compound 70]: the pIC50 is under 6.00.

With `Cn1ccc(CNC(=O)[C@H]2C[C@H](c3c(-c4ccc(F)cc4)[nH]c4c(F)cc(F)cc43)C2)n1` [Compound 71], the pIC50 was over 6.60.

Consider `COCc1cc(CNC(=O)[C@H]2C[C@H](c3c(-c4ccc(F)cc4)[nH]c4c(F)cc(F)cc43)C2)n[nH]1` [Compound 72], for which the negative-log IC50 (pIC50) is under 6.00.

In the case of `Cc1cc(CNC(=O)[C@H]2C[C@H](c3c(-c4ccc(F)cc4)[nH]c4c(F)cc(F)cc43)C2)nn1C` [Compound 73], the negative-log IC50 (pIC50) is 6.00 to 6.60.

Turning to `CC1(O)CN(C(=O)[C@H]2C[C@H](c3c(-c4ccc(F)cc4)[nH]c4c(F)cc(F)cc43)C2)C1` [Compound 74], the negative-log IC50 (pIC50) is 6.00 to 6.60.

On to `O=C(NC(CO)CF)[C@H]1C[C@H](c2c(-c3ccc(F)cc3)[nH]c3c(F)cc(F)cc32)C1` (stereo partly shown) [Compound 78], for which the negative-log IC50 (pIC50) was over 6.60.

For `CN(CCO)C(=O)[C@H]1C[C@H](c2c(-c3ccc(F)cc3)[nH]c3c(F)cc(F)cc32)C1` [Compound 79], the negative-log IC50 (pIC50) is over 6.60.

Turning to `O=C(NCC1(O)CCCCC1)[C@H]1C[C@H](c2c(-c3ccc(F)cc3)[nH]c3c(F)cc(F)cc32)C1` [Compound 80], the pIC50 is under 6.00.

For the compound `C[C@H](O)CNC(=O)[C@H]1C[C@H](c2c(-c3ccc(F)cc3)[nH]c3c(F)cc(F)cc32)C1` [Compound 82], the pIC50 is 6.00 to 6.60.

Regarding `O=C(NCC1(CO)COC1)[C@H]1C[C@H](c2c(-c3ccc(F)cc3)[nH]c3c(F)cc(F)cc32)C1` [Compound 83], the pIC50 was under 6.00.

As for `O=C(OC1CN(C(=O)[C@H]2C[C@H](c3c(-c4ccc(F)cc4)[nH]c4c(F)cc(F)cc43)C2)C1)C1CCOCC1` [Compound 85], the pIC50 was over 6.60.

On to `CC(C)(O)C1CN(C(=O)[C@H]2C[C@H](c3c(-c4ccc(F)cc4)[nH]c4c(F)cc(F)cc43)C2)C1` [Compound 86], for which the pIC50 was under 6.00.

For `O=C([C@H]1C[C@H](c2c(-c3ccc(F)cc3)[nH]c3c(F)cc(F)cc32)C1)N1CCC(O)(CO)CC1` [Compound 87], the pIC50 was under 6.00.

For the compound `NC(=O)[C@@H]1CCCN1C(=O)[C@H]1C[C@H](c2c(-c3ccc(F)cc3)[nH]c3c(F)cc(F)cc32)C1` [Compound 88], the negative-log IC50 (pIC50) was under 6.00.

Regarding `CC(O)CN(C)C(=O)[C@H]1C[C@H](c2c(-c3ccc(F)cc3)[nH]c3c(F)cc(F)cc32)C1` (stereo partly shown) [Compound 90], the pIC50 is 6.00 to 6.60.

For `CC(=O)NC1CCCN(C(=O)[C@H]2C[C@H](c3c(-c4ccc(F)cc4)[nH]c4c(F)cc(F)cc43)C2)C1` (stereo partly shown) [Compound 91], the pIC50 was under 6.00.

On to `NC(=O)C1CCCCN1C(=O)[C@H]1C[C@H](c2c(-c3ccc(F)cc3)[nH]c3c(F)cc(F)cc32)C1` (stereo partly shown) [Compound 92], for which the negative-log IC50 (pIC50) was 6.00 to 6.60.

Turning to `CN(CC(C)(C)O)C(=O)[C@H]1C[C@H](c2c(-c3ccc(F)cc3)[nH]c3c(F)cc(F)cc32)C1` [Compound 93], the pIC50 is under 6.00.

Turning to `O=C([C@H]1C[C@H](c2c(-c3ccc(F)cc3)[nH]c3c(F)cc(F)cc32)C1)N1CCCCC1CCO` (stereo partly shown) [Compound 94], the negative-log IC50 (pIC50) was under 6.00.

The values are drawn from patent US12116343B2, “Inhibitors of APOL1 and methods of using same” (Vertex Pharmaceuticals Incorporated, priority 2020, dated 2024).
